According to EP0435794A1, “Alkenyl- or heteroaryl thio, sulfone, sulfoxy herbicides” (RHONE-POULENC AGROCHIMIE, priority 1989, dated 1991):

Tests used:
Format in all cases: in vivo
Setaria faberii = test: Exemple C: selectivity test in field crops, pre-emergence (weed); details: 24 days
Excerpt: (§1) Exemple C - Essai de sélectivité en grandes cultures avec application herbicide, en prélevée des espèces végétales
(§2) Dans des pots de 7 X 7 X 8 cm remplis de terre agricole légère, on sème un nombre de graines déterminé en fonction de l'espèce végétale et de la grosseur de la graine.
(§3) On recouvre ensuite les graines d'une couche de terre d'environ 3 mm d'épaisseur.
(§4) Les pots sont alors traités par pulvérisation de bouillie en quantité correspondant à une dose volumique d'application de 500 l/ha et contenant la matière active à la concentration désirée.
(§5) La bouillie a été préparée de la même manière qu'à l'exemple A.
(§6) Les pots traités sont ensuite placés dans des bacs destinés à recevoir l'eau d'arrosage, en subirrigation, et maintenus pendant 24 jours à température ambiante sous 70 % d'humidité relative.
(§7) Le relevé est effectué de la façon suivante:
(§8) Au bout de 24 jours, on mesure un pourcentage (D) de destruction du nombre de pieds dans le pot traité par rapport au nombre de plantes dans les pots non traités (témoin). On mesure, sur les plantes traitées restantes, le pourcentage de réduction de taille (RT) par rapport aux plantes témoins.
(§9) Le pourcentage de volume foliaire non détruit par le produit est donc donné par la formule: ([100-D] X [100-RT])/(100)= A [formula]
(§10) Cette valeur A est transformée en notation de 0 à 5 selon l'échelle suivante:
(§11) Ainsi, un produit est jugé comme sélectif vis à vis de la culture lorsque la valeur A notée est de 0 ou 1.
(§12) Les résultats obtenus sont présentés dans l'exemple C pour des doses d'application de 500, 1000, 2000 ou 4000 g de matière active par hectare selon les produits.
(§13) Les espèces végétales utilisées dans cet exemple sont: […]

Panicum milicaeum = test: as above; details: 24 days
Excerpt: as §1, §2, §3, §4, §5, §6, §7, §8, §9, §10, §11, §12, §13

Echinochloa crus-galli = test: as above; details: 24 days
Excerpt: as §1, §2, §3, §4, §5, §6, §7, §8, §9, §10, §11, §12, §13

Sorghum halepense = test: as above; details: 24 days
Excerpt: as §1, §2, §3, §4, §5, §6, §7, §8, §9, §10, §11, §12, §13

Digitaria sanguinalis = test: as above; details: 24 days
Excerpt: as §1, §2, §3, §4, §5, §6, §7, §8, §9, §10, §11, §12, §13

blé = test: Exemple C: selectivity test in field crops, pre-emergence (crop); details: 24 days, 0 or 1 = selective; further: ranges in brackets are in %
Excerpt: as §1, §2, §3, §4, §5, §6, §7, §8, §9, §10, §11, §12
(§14) Les espèces végétales utilisées dans cet exemple sont:
(§15) Comme on peut le voir sur le tableau de résultats de cet exemple C, de nombreux produits présentent une excellente activité antigraminée de prélevée tout en montrant une excellente sélectivité pour 1 ou 2 ou 3 ou 4 des 4 cultures testées = blé, maïs, riz, soja.

riz = test: as above; details: 24 days, 0 or 1 = selective
Excerpt: as §1, §2, §3, §4, §5, §6, §7, §8, §9, §10, §11, §12, §14, §15

maïs = test: as above; details: 24 days, 0 or 1 = selective
Excerpt: as §1, §2, §3, §4, §5, §6, §7, §8, §9, §10, §11, §12, §14, §15

soja = test: as above; details: 24 days, 0 or 1 = selective
Excerpt: as §1, §2, §3, §4, §5, §6, §7, §8, §9, §10, §11, §12, §14, §15

Alopecurus myosuroides = test: Exemple C: selectivity test in field crops, pre-emergence (weed); details: 24 days
Excerpt: as §1, §2, §3, §4, §5, §6, §7, §8, §9, §10, §11, §12, §13
Wherever Notation de l'activité herbicide GLY is given: ranges in brackets are in %.
Wherever Notation de l'activité herbicide ORY is given: ranges in brackets are in %.
Wherever Notation de l'activité herbicide ZEA is given: ranges in brackets are in %.

## O=S(=O)(CC(O)(CBr)c1cc(Cl)cc(Cl)c1)c1cccs1 (stereo not shown) [compound 62]
Setaria faberii; dose 1 Kg m.a./ha
  Notation de l'activité herbicide SET: 4 (10 à 30)
Panicum milicaeum; dose 1 Kg m.a./ha
  Notation de l'activité herbicide PAN: 4 (10 à 30)
Echinochloa crus-galli; dose 1 Kg m.a./ha
  Notation de l'activité herbicide ECh: 5 (O à 10)
Sorghum halepense; dose 1 Kg m.a./ha
  Notation de l'activité herbicide SOR: 2 (50 à 70)
Digitaria sanguinalis; dose 1 Kg m.a./ha
  Notation de l'activité herbicide DIG: 5 (O à 10)
blé; dose 1 Kg m.a./ha
  Notation de l'activité herbicide TRZ: 2 (50 à 70)
riz; dose 1 Kg m.a./ha
  Notation de l'activité herbicide ORY: 2 (50 à 70)
maïs; dose 1 Kg m.a./ha
  Notation de l'activité herbicide ZEA: 1 (70 à 90)
soja; dose 1 Kg m.a./ha
  Notation de l'activité herbicide GLY: 0 (90 à 100)

## CS(=O)(=O)OCC(O)(CS(=O)(=O)c1cccs1)c1cc(Cl)cc(Cl)c1 (stereo not shown) [compound 56, 2-(3,5-dichlorophényl) 1-méthylsulfonate 3-(2-thiénylsulfonyl) 2-propanol]
Setaria faberii; dose 1 Kg m.a./ha
  Notation de l'activité herbicide SET: 5 (O à 10)
Panicum milicaeum; dose 1 Kg m.a./ha
  Notation de l'activité herbicide PAN: 5 (O à 10)
Echinochloa crus-galli; dose 1 Kg m.a./ha
  Notation de l'activité herbicide ECh: 5 (O à 10)
Sorghum halepense; dose 1 Kg m.a./ha
  Notation de l'activité herbicide SOR: 2 (50 à 70)
Digitaria sanguinalis; dose 1 Kg m.a./ha
  Notation de l'activité herbicide DIG: 5 (O à 10)
blé; dose 1 Kg m.a./ha
  Notation de l'activité herbicide TRZ: 2 (50 à 70)
riz; dose 1 Kg m.a./ha
  Notation de l'activité herbicide ORY: 2 (50 à 70)
maïs; dose 1 Kg m.a./ha
  Notation de l'activité herbicide ZEA: 1 (70 à 90)
soja; dose 1 Kg m.a./ha
  Notation de l'activité herbicide GLY: 0 (90 à 100)

## C=C(CS(=O)(=O)c1cc(C)sc1C)c1ccccc1 [compound 51]
Setaria faberii; dose 1 Kg m.a./ha
  Notation de l'activité herbicide SET: 4 (10 à 30)
Panicum milicaeum; dose 1 Kg m.a./ha
  Notation de l'activité herbicide PAN: 4 (10 à 30)
Alopecurus myosuroides; dose 1 Kg m.a./ha
  Notation de l'activité herbicide ALO: 4 (10 à 30)
Echinochloa crus-galli; dose 1 Kg m.a./ha
  Notation de l'activité herbicide ECh: 4 (10 à 30)
Sorghum halepense; dose 1 Kg m.a./ha
  Notation de l'activité herbicide SOR: 4 (10 à 30)
Digitaria sanguinalis; dose 1 Kg m.a./ha
  Notation de l'activité herbicide DIG: 5 (O à 10)
blé; dose 1 Kg m.a./ha
  Notation de l'activité herbicide TRZ: 0 (90 à 100)
riz; dose 1 Kg m.a./ha
  Notation de l'activité herbicide ORY: 0 (90 à 100)
maïs; dose 1 Kg m.a./ha
  Notation de l'activité herbicide ZEA: 0 (90 à 100)
soja; dose 1 Kg m.a./ha
  Notation de l'activité herbicide GLY: 0 (90 à 100)

## CC(=O)OC(CBr)(CS(=O)(=O)c1sccc1Br)c1ccccc1 (stereo not shown) [compound 60, 2-acétoxy 3-bromo 1-[(3-bromo 2-thiényl)sulfonyl] 2-phényl propane]
Setaria faberii; dose 0.5 Kg m.a./ha
  Notation de l'activité herbicide SET: 4 (10 à 30)
Panicum milicaeum; dose 0.5 Kg m.a./ha
  Notation de l'activité herbicide PAN: 3 (30 à 50)
Alopecurus myosuroides; dose 0.5 Kg m.a./ha
  Notation de l'activité herbicide ALO: 2 (50 à 70)
Echinochloa crus-galli; dose 0.5 Kg m.a./ha
  Notation de l'activité herbicide ECh: 5 (O à 10)
Sorghum halepense; dose 0.5 Kg m.a./ha
  Notation de l'activité herbicide SOR: 5 (O à 10)
blé; dose 0.5 Kg m.a./ha
  Notation de l'activité herbicide TRZ: 0 (90 à 100)
riz; dose 0.5 Kg m.a./ha
  Notation de l'activité herbicide ORY: 0 (90 à 100)
maïs; dose 0.5 Kg m.a./ha
  Notation de l'activité herbicide ZEA: 0 (90 à 100)
soja; dose 0.5 Kg m.a./ha
  Notation de l'activité herbicide GLY: 0 (90 à 100)

## O=S(=O)(CC(O)(CBr)c1ccc(F)c(Cl)c1)c1ccsc1 (stereo not shown) [compound 65]
Setaria faberii; dose 0.5 Kg m.a./ha
  Notation de l'activité herbicide SET: 0 (90 à 100)
Panicum milicaeum; dose 0.5 Kg m.a./ha
  Notation de l'activité herbicide PAN: 3 (30 à 50)
Alopecurus myosuroides; dose 0.5 Kg m.a./ha
  Notation de l'activité herbicide ALO: 0 (90 à 100)
Echinochloa crus-galli; dose 0.5 Kg m.a./ha
  Notation de l'activité herbicide ECh: 5 (O à 10)
Sorghum halepense; dose 0.5 Kg m.a./ha
  Notation de l'activité herbicide SOR: 5 (O à 10)
Digitaria sanguinalis; dose 0.5 Kg m.a./ha
  Notation de l'activité herbicide DIG: 5 (O à 10)
blé; dose 0.5 Kg m.a./ha
  Notation de l'activité herbicide TRZ: 0 (90 à 100)
riz; dose 0.5 Kg m.a./ha
  Notation de l'activité herbicide ORY: 3 (30 à 50)
maïs; dose 0.5 Kg m.a./ha
  Notation de l'activité herbicide ZEA: 0 (90 à 100)
soja; dose 0.5 Kg m.a./ha
  Notation de l'activité herbicide GLY: 0 (90 à 100)

## Cc1cc(C(O)(CBr)CS(=O)(=O)c2ccsc2)ccc1F (stereo not shown) [compound 66]
Setaria faberii; dose 1 Kg m.a./ha
  Notation de l'activité herbicide SET: 3 (30 à 50)
Panicum milicaeum; dose 1 Kg m.a./ha
  Notation de l'activité herbicide PAN: 3 (30 à 50)
Alopecurus myosuroides; dose 1 Kg m.a./ha
  Notation de l'activité herbicide ALO: 3 (30 à 50)
Echinochloa crus-galli; dose 1 Kg m.a./ha
  Notation de l'activité herbicide ECh: 5 (O à 10)
Sorghum halepense; dose 1 Kg m.a./ha
  Notation de l'activité herbicide SOR: 5 (O à 10)
Digitaria sanguinalis; dose 1 Kg m.a./ha
  Notation de l'activité herbicide DIG: 5 (O à 10)
blé; dose 1 Kg m.a./ha
  Notation de l'activité herbicide TRZ: 1 (70 à 90)
riz; dose 1 Kg m.a./ha
  Notation de l'activité herbicide ORY: 2 (50 à 70)
maïs; dose 1 Kg m.a./ha
  Notation de l'activité herbicide ZEA: 2 (50 à 70)
soja; dose 1 Kg m.a./ha
  Notation de l'activité herbicide GLY: 1 (70 à 90)

## O=S(=O)(CC(O)(CBr)c1cccc(Cl)c1)c1ccsc1 (stereo not shown) [compound 64]
Setaria faberii; dose 1 Kg m.a./ha
  Notation de l'activité herbicide SET: 5 (O à 10)
Panicum milicaeum; dose 1 Kg m.a./ha
  Notation de l'activité herbicide PAN: 5 (O à 10)
Alopecurus myosuroides; dose 1 Kg m.a./ha
  Notation de l'activité herbicide ALO: 3 (30 à 50)
Echinochloa crus-galli; dose 1 Kg m.a./ha
  Notation de l'activité herbicide ECh: 5 (O à 10)
Sorghum halepense; dose 1 Kg m.a./ha
  Notation de l'activité herbicide SOR: 2 (50 à 70)
Digitaria sanguinalis; dose 1 Kg m.a./ha
  Notation de l'activité herbicide DIG: 5 (O à 10)
blé; dose 1 Kg m.a./ha
  Notation de l'activité herbicide TRZ: 0 (90 à 100)
riz; dose 1 Kg m.a./ha
  Notation de l'activité herbicide ORY: 2 (50 à 70)
maïs; dose 1 Kg m.a./ha
  Notation de l'activité herbicide ZEA: 2 (50 à 70)
soja; dose 1 Kg m.a./ha
  Notation de l'activité herbicide GLY: 0 (90 à 100)
